Here are results for twelve molecules from publication PMC3761409 (Journal of molecular recognition : JMR, 2013).

No end group written: not given here.

Assay [1] addresses T1, Human Bcl2 (residues 1-205) (Homo sapiens, UniProt P10415). The experiment in a line: Isothermal titration calorimetry. The assay is classed as binding. The settings on record: for Kd: SD.
Assay [2] deals with T1, Human Bcl2 (residues 1-205). The experiment in a line: ITC: effect of NaCl concentration on binding. The following applies: Sodium phosphate buffer, NaCl 0-500mM, 25°C, pH 7. For orientation: ITC needs no label: the signal is the heat of the interaction.
Assay [3] concerns the target Bcl2 (Homo sapiens, UniProt P10415). The experiment in a line: In vitro binding of full-length Bad to Bcl2. The settings on record: unpublished observations.
The target of assay [4] is BclXL (Homo sapiens, UniProt Q07817). Description: In vitro binding of full-length Bad to BclXL. The following applies: unpublished observations.
Chain of BclXL (Q07817 whole entry, species assumed): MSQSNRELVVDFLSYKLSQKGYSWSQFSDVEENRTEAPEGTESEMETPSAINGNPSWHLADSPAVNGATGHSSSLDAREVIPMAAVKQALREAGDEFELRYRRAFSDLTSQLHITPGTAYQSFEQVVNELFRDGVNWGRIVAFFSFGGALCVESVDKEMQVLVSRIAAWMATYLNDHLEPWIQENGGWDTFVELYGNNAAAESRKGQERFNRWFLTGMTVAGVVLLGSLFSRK

T1 sequence (P10415 1-205): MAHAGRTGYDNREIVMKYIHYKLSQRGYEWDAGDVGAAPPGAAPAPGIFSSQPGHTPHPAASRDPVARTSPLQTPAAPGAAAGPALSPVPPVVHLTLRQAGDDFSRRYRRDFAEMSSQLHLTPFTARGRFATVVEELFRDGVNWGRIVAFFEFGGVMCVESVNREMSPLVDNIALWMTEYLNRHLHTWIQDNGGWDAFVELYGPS
Chain of Bcl2 (P10415 whole entry): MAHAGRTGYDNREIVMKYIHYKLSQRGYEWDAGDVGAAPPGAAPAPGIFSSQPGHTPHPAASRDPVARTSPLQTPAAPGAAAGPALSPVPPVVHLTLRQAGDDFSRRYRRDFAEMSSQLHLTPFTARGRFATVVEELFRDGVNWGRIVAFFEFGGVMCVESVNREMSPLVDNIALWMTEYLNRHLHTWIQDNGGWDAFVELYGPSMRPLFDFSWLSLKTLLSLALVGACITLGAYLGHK

As for `CC[C@H](C)[C@H](NC(=O)[C@H](C)NC(=O)[C@H](CC(C)C)NC(=O)[C@H](CCC(N)=O)NC(=O)[C@H](CCCNC(=N)N)NC(=O)CNC(=O)[C@@H](NC(=O)[C@H](CCC(N)=O)NC(=O)CNC(=O)[C@H](CCSC)NC(=O)[C@@H](NC(=O)[C@@H](N)CO)[C@@H](C)O)C(C)C)C(=O)N[C@H](C(=O)NCC(=O)N[C@@H](CC(=O)O)C(=O)N[C@@H](CC(=O)O)C(=O)N[C@H](C(=O)N[C@@H](CC(N)=O)C(=O)N[C@@H](CCCNC(=N)N)C(=O)N[C@@H](CCCNC(=N)N)C(=O)O)[C@@H](C)CC)[C@@H](C)CC` [Bak], in assay [1], binding was put at a Kd of 1300 ± 250 nM. In addition, the “effect of increasing NaCl concentration on the binding (Kd) to Bcl2” value (“effect of increasing NaCl concentration” for short) in assay [2] is reported as “largely independent of salt concentration”.

On to `CC(C)C[C@H](NC(=O)[C@H](C)NC(=O)[C@H](CCCCN)NC(=O)[C@H](CC(C)C)NC(=O)[C@H](CCCNC(=N)N)NC(=O)[C@H](C)NC(=O)[C@H](C)NC(=O)[C@@H](NC(=O)[C@H](CC(C)C)NC(=O)[C@H](CCC(N)=O)NC(=O)[C@H](C)NC(=O)[C@H](C)NC(=O)[C@@H](N)CO)[C@@H](C)O)C(=O)NCC(=O)N[C@@H](CC(=O)O)C(=O)N[C@@H](CCC(=O)O)C(=O)N[C@@H](CC(C)C)C(=O)N[C@@H](Cc1c[nH]cn1)C(=O)N[C@@H](CCC(N)=O)C(=O)N[C@@H](CCCNC(=N)N)C(=O)O` [Hrk], for which the equilibrium dissociation constant (Kd) in assay [1] came to 25000 ± 8800 nM. Besides, the “effect of increasing NaCl concentration” value in assay [2] was “enhancement of between two-to-five folds”.

The molecule ASTKKLSESLKRIGDELDSN [Bax] displayed a dissociation constant Kd in assay [1] of 3100 ± 660 nM. Further, the “effect of increasing NaCl concentration” value in assay [2] is reported as “enhancement of between two-to-five folds”.

Molecule DIIRNIARHLAQVGDSMDRS [Bid] yielded a Kd in assay [1] of 2100 ± 410 nM. In assay [2], the “effect of increasing NaCl concentration” value is reported as “largely independent of salt concentration”.

With EGSDALALRLACIGDEMDVS [Bik], binding in assay [1] was characterised by a dissociation constant (Kd) of 3780 ± 790 nM. Besides, in assay [2], the “effect of increasing NaCl concentration” value is on record as “enhancement of between two-to-five folds”.

For the molecule ELEVECATQLRRFGDKLNFR [Noxa], in assay [1] (ITC, temperature, buffer or solution pH varied), the “binding to Bcl2 under varied conditions” value is “did not observe the binding”.

In assay [1], QAEVQIARKLQCIADQFHRL [Bmf] returned a Kd of 300 ± 70 nM. In addition, the “effect of increasing NaCl concentration” value in assay [2] was “little or negligible effect”.

As to QWAREIGAQLRRMADDLNAQ [Puma], in assay [1], the dissociation constant Kd was 370 ± 70 nM. Further, the “effect of increasing NaCl concentration” value in assay [2] is listed as “little or negligible effect”.

In turn, QWAREIGAQLRRMGDDLNAQ [Puma_A+4G] had a Kd in assay [1] of 2120 ± 420 nM.

Molecule SAAQLTAARLKALADELHQR [Hrk_G+4A] registered a dissociation constant (Kd) in assay [1] of 3840 ± 710 nM.

With WAAQRYGRELRRMSDEFVDS [Bad], the Kd in assay [1] stood at 4140 ± 800 nM. Moreover, the “effect of increasing NaCl concentration” value in assay [2] is recorded as “enhancement of between two-to-five folds”.

B1: full-length Bad: full-length Bad protein (Bcl2-associated death promoter) (protein, UniProt Q92934 1-168, looked up)
chain: MFQIPEFEPSEQEDSSSAERGLGPSPAGDGPSGSGKHHRQAPGLLWDASHQQEQPTSSSHHGGAGAVEIRSRHSSYPAGTEDDEGMGEEPSPFRGRSRSAPPNLWAAQRYGRELRRMSDEFVDSFKKGLPRPKSAGTATQMRQSSSWTRVFQSWWDRNLGRGSSAPSQ
modifications: full-length
With B1, in assay [3], the “affinity of the full-length protein toward Bcl2” value was “poor affinity”. For the same molecule, in assay [4], the “affinity of the full-length protein toward BclXL” value is “poor affinity”.

For orientation: Kd means the equilibrium constant for the complex coming apart. Lower therefore signals a tighter complex.
